Results reported in publication PMC9121888 (Pharmacology Research & Perspectives, 2022).
Like-named read-outs stand apart in the source and are kept apart here.

Experiments:
[1] = Study 2 plasma pharmacokinetics of verinurad; format: in vivo, human; details: human, plasma, oral, healthy non-Asian participants; for half-life: read-out: t½λz (converted)
Experimental: (§1) Study 2 was a Phase 1, randomized, open‐label study comprising of three parts. Parts 1 and 2 assessed the pharmacokinetics and pharmacodynamics of single and multiple doses of verinurad, respectively (Figure 1). Part 3 assessed the effect of food on the pharmacokinetics and pharmacodynamics of verinurad and is not reported further herein. In the single‐dose assessment, […] were randomized 1:1:1:1:1:1 into 1 of 6 treatment sequences with a single dose of 4.5, 6, or 12 mg verinurad, administered on days 1, 5, and 9 (Figure 1). In the multiple‐dose assessment, 8 participants received 12 mg verinurad QD on days 1 to 7.
In both studies, participants received verinurad capsules with an extended‐release profile. On the days of pharmacokinetic sampling, treatment was given in fasting state.
Verinurad plasma samples were analyzed using similar methodologies as described by Shen et al.[13] with lower and upper limits of quantification of 0.100 ng/mL and 40.0 ng/mL, respectively. The ability to dilute overrange samples was also confirmed. […].
(§2) Pharmacokinetics and pharmacodynamics were assessed in all participants who received ≥1 dose of study drug and had ≥1 corresponding assessment.

[2] = tested on: serum uric acid (sUA) and urinary uric acid (uUA); experiment: Study 2 pharmacodynamics: serum and urinary uric acid; format: in vivo, human; details: healthy non-Asian participants
Experimental: as §1
Key pharmacodynamic parameters included time‐matched percentage change from baseline (day –1) at each timepoint in sUA concentration, maximum observed percentage change from baseline (time‐matched, day –1) in sUA concentration (Emax,CB) and time to Emax,CB, amount of UA recovered in urine (Aeur), and fractional excretion of UA (FEUA).
as §2

[3] = parameters: method as in PMID 29949102; details: cited from earlier work
[4] = parameters: method as in PMID 29950814; details: cited from earlier work
[5] = parameters: method as in PMID 30334639; details: patients with gout, 1 Japanese study and 1 Western study; cited from earlier work
[6] = 12 mg verinurad QD, day 1, 3 to 6 h post-dose
[7] = 12 mg verinurad QD, day 7, 3 to 6 h post-dose
[8] = single dose 4.5 mg verinurad, 3 to 6 h post-dose
[9] = single dose 6 mg verinurad, 3 to 6 h post-dose
[10] = single dose 12 mg verinurad, 3 to 6 h post-dose
[11] = single dose 15 mg verinurad, moderate renal impairment
[12] = single dose 15 mg verinurad, severe renal impairment
[13] = single dose, mild renal impairment
[14] = healthy Japanese male participants, day 6 after QD dosing with 15 mg verinurad modified-release formulation

## CC(C)(Sc1ccncc1-c1ccc(C#N)c2ccccc12)C(=O)O [verinurad]
[1]; 4.5 mg, single dose 4.5 mg verinurad, geometric mean (gCV%), read-out: AUC
  AUC: 86.8 ng·h/mL
[1]; 4.5 mg, single dose 4.5 mg verinurad, geometric mean (gCV%), read-out: AUCτ
  AUC: 68.1 ng·h/mL
[1]; 4.5 mg, single dose 4.5 mg verinurad, geometric mean (gCV%), read-out: Cmax
  Cmax: 11.8 ng/mL
[1]; 6 mg, single dose 6 mg verinurad, geometric mean (gCV%), read-out: AUC
  AUC: 102 ng·h/mL
[1]; 6 mg, single dose 6 mg verinurad, geometric mean (gCV%), read-out: AUCτ
  AUC: 80.8 ng·h/mL
[1]; 12 mg, multiple-dose assessment 12 mg verinurad QD, Day 1, geometric mean (gCV%), read-out: AUC
  AUC: 230 ng·h/mL
[1]; 12 mg, multiple-dose assessment 12 mg verinurad QD, Day 1, geometric mean (gCV%), read-out: AUCτ
  AUC: 209 ng·h/mL
[1]; 12 mg, multiple-dose assessment 12 mg verinurad QD, Day 1, geometric mean (gCV%), read-out: Cmax
  Cmax: 29.9 ng/mL
[1]; 12 mg, multiple-dose assessment 12 mg verinurad QD, Day 7, geometric mean (gCV%), read-out: AUCτ
  AUC: 271 ng·h/mL
[1]; 12 mg, multiple-dose assessment 12 mg verinurad QD, Day 7, geometric mean (gCV%), read-out: Cmax
  Cmax: 36.3 ng/mL
[1]; 12 mg, single dose 12 mg verinurad, geometric mean (gCV%), read-out: AUC
  AUC: 206 ng·h/mL
[1]; 12 mg, single dose 12 mg verinurad, geometric mean (gCV%), read-out: AUCτ
  AUC: 168 ng·h/mL
[1]; 12 mg, single dose 12 mg verinurad, geometric mean (gCV%), read-out: Cmax
  Cmax: 28.6 ng/mL
[1]; 12 mg, single dose of verinurad 4.5, 6, or 12 mg, read-out: geometric mean AUCτ, range over doses
  AUC: 68.1 to 168 ng·h/mL
[1]; 12 mg, single dose of verinurad 4.5, 6, or 12 mg, read-out: geometric mean Cmax, range over doses
  Cmax: 11.8 to 28.6 ng/mL
[1]; multiple-dose assessment 12 mg verinurad QD, Day 1, geometric mean (gCV%)
  half-life: 7.15 h
[1]; multiple-dose assessment 12 mg verinurad QD, Day 7, median (range), read-out: tmax
  Tmax: 6 h
[1]; single dose 4.5 mg verinurad, geometric mean (gCV%)
  half-life: 12.7 h
[1]; single dose 6 mg verinurad, geometric mean (gCV%)
  half-life: 13.6 h
[2]; 12 mg verinurad QD, Day 1
  tEmax,CB, mean (SD): 9.0 (1.0) hour
[2]; 12 mg verinurad QD, Day 7
  tEmax,CB, mean (SD): 7.0 (3.0) hour
[2]; [6]
  mean Aeur at peak, higher compared with day –1: 353%
  mean FEUA at peak: 33.3%
[2]; [7]
  mean Aeur at peak, higher compared with day –1: 81.3%
  mean FEUA at peak: 31.2%
[2]; single dose 4.5 mg verinurad
  tEmax,CB, mean (SD): 8.0 (2.1) hour
[2]; [8]
  mean Aeur at peak, higher compared with day –1: 219%
  mean FEUA at peak: 21.5%
[2]; single dose 6 mg verinurad
  tEmax,CB, mean (SD): 8.0 (2.0) hour
[2]; [9]
  mean Aeur at peak, higher compared with day –1: 267%
  mean FEUA at peak: 24.8%
[2]; single dose 12 mg verinurad
  tEmax,CB, mean (SD): 9.0 (1.5) hour
[2]; [10]
  mean Aeur at peak, higher compared with day –1: 338%
  mean FEUA at peak: 33.3%
[3]; [11]
  AUC increase compared with normal renal function: 148%
  Cmax increase compared with normal renal function: 73%
[3]; [12]
  AUC increase compared with normal renal function: 130%
  Cmax increase compared with normal renal function: 128%
[3]; [13]
  AUC increase compared with normal renal function: 24%
  Cmax increase compared with normal renal function: 53%
[4]; after QD doses
  accumulation for AUC: 1.3 fold
  accumulation for Cmax: ~ 1.2 fold
[4]; [14]
  AUCτ: 239 ng·h/mL
  Cmax: 38.2 ng/mL
[5]
  verinurad exposure, higher than in Western patients: > 2 fold
